Results taken from patent US20060069132A1, “Azolecarboxamide herbicides” (priority 2004, published 2006).

Assays:
[1] = tested on: rice; assay: Test B flooded paddy test; type: in vivo, Oryza sativa; conditions: 1000 g ai/ha, scale 0 to 100 (0 no effect, 100 complete control)
Summary of the method: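 Treated at 2-leaf (paddy) or 1–4-leaf, 2–18 cm (postemergence); greenhouse 13–15 d; visual score vs control, 0 none to 100 complete control; dash = not tested.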

[2] = tested on: giant foxtail; assay: Test B pre-/postemergence herbicide test; type: in vivo, Setaria faberi
Summary of the method: (§1)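 Herbicidal effect was judged by eye on a 0–100 scale after plants stood 13 to 15 days in the greenhouse following pre- or postemergence treatment with surfactant-containing formulations.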

[3] = tested on: lambsquarters; assay: Test B pre-/postemergence herbicide test; type: in vivo, Chenopodium album
Summary of the method: as §1

[4] = tested on: cocklebur; assay: Test B pre-/postemergence herbicide test; type: in vivo, Xanthium strumarium
Summary of the method: (§2)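 Visual rating, 0 (no effect) to 100 (complete control), versus untreated controls after 13–15 d in greenhouse. Pre- and postemergence applications (postemergence plants 2–18 cm, 1–4 leaves); flooded paddy arm at 2-leaf stage. Compounds in non-phytotoxic solvent plus surfactant.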

[5] = tested on: corn; assay: Test B pre-/postemergence herbicide test; type: in vivo, Zea mays
Summary of the method: as §1

[6] = tested on: Surinam grass; assay: Test B pre-/postemergence herbicide test; type: in vivo, Urochloa decumbens
Summary of the method: as §1

[7] = tested on: blackgrass; assay: Test B postemergence herbicide test; type: in vivo, Alopecurus myosuroides; conditions: for Plant response rating, Blackgrass: visual rating after 13 to 15 days
Summary of the method: (§3)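 Visual ratings, 0 (no effect) to 100 (complete control), made versus controls after 13–15 d greenhouse. Paddy plants treated at 2-leaf stage; postemergence plants at 1- to 4-leaf stage, 2–18 cm tall.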

[8] = tested on: pigweed; assay: Test B pre-/postemergence herbicide test; type: in vivo, Amaranthus retroflexus
Summary of the method: as §1

[9] = tested on: small flower umbrella sedge; assay: Test B flooded paddy test; type: in vivo, Cyperus difformis; conditions: 1000 g ai/ha, scale 0 to 100 (0 no effect, 100 complete control)
Summary of the method: as §3

[10] = tested on: wheat; assay: Test B postemergence herbicide test; type: in vivo, Triticum aestivum; parameters: key to Wheat plant response rating: 0 = no effect, 100 = complete control; conditions: for Plant response rating, Wheat: visual rating after 13 to 15 days
Summary of the method: (§4)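 Plants grow to 1- to 4-leaf stage (2–18 cm) for postemergence spraying, or to 2-leaf stage for the paddy test. Formulated compound is applied. Greenhouse holding lasts 13–15 days. Response is scored visually relative to controls, 0 no effect to 100 complete control; a dash means no result.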

[11] = tested on: ducksalad; assay: Test B flooded paddy test; type: in vivo, Heteranthera limosa; conditions: 1000 g ai/ha, scale 0 to 100 (0 no effect, 100 complete control)
Summary of the method: as §3

[12] = tested on: morningglory; assay: Test B pre-/postemergence herbicide test; type: in vivo, Ipomoea coccinea
Summary of the method: as §2

[13] = tested on: barnyardgrass; assay: Test B flooded paddy test; type: in vivo, Echinochloa crus-galli; conditions: 1000 g ai/ha, scale 0 to 100 (0 no effect, 100 complete control)
Summary of the method: as §3

[14] = tested on: velvetleaf; assay: Test B pre-/postemergence herbicide test; type: in vivo, Abutilon theophrasti
Summary of the method: as §1

[15] = tested on: wild oat; assay: Test B postemergence herbicide test; type: in vivo, Avena fatua; conditions: for Plant response rating, Oat, Wild: visual rating after 13 to 15 days
Summary of the method: as §4

[16] = 125 g ai/ha, 0 is no effect, 100 is complete control, preemergence
[17] = Postemergence, 500 g ai/ha, scale 0 (no effect) to 100 (complete control)
[18] = postemergence, 125 g ai/ha, scale 0 to 100
[19] = 125 g ai/ha, 0 = no effect, 100 = complete control, preemergence
[20] = 125 g ai/ha, visual rating, scale 0 (no effect) to 100 (complete control), postemergence
[21] = 500 g ai/ha, visual rating, 0 = no effect, 100 = complete control, preemergence
[22] = postemergence, 500 g ai/ha, scale 0 to 100, 0 is no effect, 100 is complete control
[23] = Postemergence, 500 g ai/ha, visual rating after 13 to 15 days, scale 0 (no effect) to 100 (complete control)
[24] = Preemergence, 500 g ai/ha, scale 0 to 100
[25] = postemergence, 125 g ai/ha, visual rating, scale 0 (no effect) to 100 (complete control)
[26] = preemergence, 125 g ai/ha, 0 to 100 scale, 0 is no effect, 100 is complete control
[27] = Postemergence, 125 g ai/ha, scale 0 (no effect) to 100 (complete control)

## CCN(C(C)=O)C(=O)c1ccc(F)c(NC(=O)c2cc(C(C)(C)C)nn2CC)c1 [Compound 413]
[1]
  Rice plant response rating: 60
[2]; [16]
  Plant response rating (0 to 100 scale), Foxtail, Giant: 10
[2]; [17]
  Foxtail, Giant plant response rating: 20
[2]; [18]
  Foxtail, Giant plant response rating: 20
[3]; [17]
  Lambsquarters plant response rating: 90
[3]; [18]
  Lambsquarters plant response rating: 70
[4]; [17]
  Cocklebur plant response rating: 90
[4]; [18]
  Cocklebur plant response rating: 30
[5]; [16]
  Plant response rating (0 to 100 scale), Corn: 0
[5]; [17]
  Corn plant response rating: 20
[5]; [18]
  Corn plant response rating: 10
[6]; [16]
  Plant response rating (0 to 100 scale), Surinam Grass: 10
[6]; [17]
  Surinam Grass plant response rating: 20
[6]; [18]
  Surinam Grass plant response rating: 20
[7]; [17]
  Blackgrass plant response rating: 20
[7]; [18]
  Blackgrass plant response rating: 10
[8]; [16]
  Plant response rating (0 to 100 scale), Pigweed: 20
[8]; [17]
  Pigweed plant response rating: 70
[8]; [18]
  Pigweed plant response rating: 50
[9]
  Sedge, Umbrella plant response rating: 90
[10]; 500 g ai/ha, scale 0 to 100, 0 no effect, 100 complete control, preemergence
  Wheat plant response rating: 80
[10]; [17]
  Wheat plant response rating: 10
[10]; [18]
  Wheat plant response rating: 0
[11]
  Ducksalad plant response rating: 80
[12]; [16]
  Plant response rating (0 to 100 scale), Morningglory: 0
[12]; [17]
  Morningglory plant response rating: 70
[12]; [18]
  Morningglory plant response rating: 30
[13]
  Barnyardgrass plant response rating: 60
[14]; [16]
  Plant response rating (0 to 100 scale), Velvetleaf: 0
[14]; [17]
  Velvetleaf plant response rating: 50
[14]; [18]
  Velvetleaf plant response rating: 30
[15]; [17]
  Oat, Wild plant response rating: 10
[15]; [18]
  Oat, Wild plant response rating: 0

## CCNC(=O)c1ccc(F)c(NC(=O)c2cc(C3(C)CC3)nn2CC)c1 [Compound 300]
[1]
  Rice plant response rating: 90
[2]; [19]
  Foxtail, Giant plant response rating (0 to 100 scale): 80
[2]; [20]
  Foxtail, Giant plant response rating: 30
[2]; [21]
  Plant response rating, Foxtail, Giant: 100
[2]; [22]
  Foxtail, Giant plant response rating: 30
[3]; [19]
  Lambsquarters plant response rating (0 to 100 scale): 100
[3]; [20]
  Lambsquarters plant response rating: 70
[3]; [21]
  Plant response rating, Lambsquarters: 100
[3]; [22]
  Lambsquarters plant response rating: 80
[4]; [19]
  Cocklebur plant response rating (0 to 100 scale): 10
[4]; [20]
  Cocklebur plant response rating: 10
[4]; [21]
  Plant response rating, Cocklebur: 20
[4]; [22]
  Cocklebur plant response rating: 50
[5]; [19]
  Corn plant response rating (0 to 100 scale): 0
[5]; [20]
  Corn plant response rating: 30
[5]; [21]
  Plant response rating, Corn: 70
[5]; [22]
  Corn plant response rating: 30
[6]; [19]
  Surinam Grass plant response rating (0 to 100 scale): 80
[6]; [20]
  Surinam Grass plant response rating: 10
[6]; [21]
  Plant response rating, Surinam Grass: 100
[6]; [22]
  Surinam Grass plant response rating: 10
[7]; [20]
  Blackgrass plant response rating: 10
[7]; [22]
  Blackgrass plant response rating: 30
[8]; [19]
  Pigweed plant response rating (0 to 100 scale): 100
[8]; [20]
  Pigweed plant response rating: 80
[8]; [21]
  Plant response rating, Pigweed: 100
[8]; [22]
  Pigweed plant response rating: 90
[9]
  Sedge, Umbrella plant response rating: 90
[10]; [20]
  Wheat plant response rating: 10
[10]; [22]
  Wheat plant response rating: 20
[11]
  Ducksalad plant response rating: 90
[12]; [19]
  Morningglory plant response rating (0 to 100 scale): 10
[12]; [20]
  Morningglory plant response rating: 90
[12]; [21]
  Plant response rating, Morningglory: 60
[12]; [22]
  Morningglory plant response rating: 90
[13]
  Barnyardgrass plant response rating: 90
[14]; [20]
  Velvetleaf plant response rating: 40
[14]; [21]
  Plant response rating, Velvetleaf: 100
[14]; [22]
  Velvetleaf plant response rating: 70
[15]; [20]
  Oat, Wild plant response rating: 30
[15]; [22]
  Oat, Wild plant response rating: 30

## CCn1nc(C(C)(C)C)cc1C(=O)Nc1cccc(C(=O)NC(C)C)c1 [Compound 51]
[1]; visual rating, 13 to 15 days
  Rice plant response rating: 70
[2]; [23]
  Plant response rating, Foxtail, Giant: 0
[2]; [24]
  Foxtail, Giant plant response rating: 100
[2]; [25]
  Foxtail, Giant plant response rating: 0
[2]; [26]
  Plant response rating, Foxtail, Giant: 100
[3]; [23]
  Plant response rating, Lambsquarters: 90
[3]; [24]
  Lambsquarters plant response rating: 100
[3]; [25]
  Lambsquarters plant response rating: 80
[3]; [26]
  Plant response rating, Lambsquarters: 100
[4]; [23]
  Plant response rating, Cocklebur: 80
[4]; [24]
  Cocklebur plant response rating: 50
[4]; [25]
  Cocklebur plant response rating: 70
[4]; [26]
  Plant response rating, Cocklebur: 0
[5]; [23]
  Plant response rating, Corn: 0
[5]; [24]
  Corn plant response rating: 50
[5]; [25]
  Corn plant response rating: 0
[5]; [26]
  Plant response rating, Corn: 0
[6]; [23]
  Plant response rating, Surinam Grass: 20
[6]; [24]
  Surinam Grass plant response rating: 80
[6]; [25]
  Surinam Grass plant response rating: 10
[6]; [26]
  Plant response rating, Surinam Grass: 30
[7]; [17]
  Plant response rating, Blackgrass: 0
[7]; [25]
  Blackgrass plant response rating: 0
[8]; [23]
  Plant response rating, Pigweed: 100
[8]; [24]
  Pigweed plant response rating: 100
[8]; [25]
  Pigweed plant response rating: 80
[8]; [26]
  Plant response rating, Pigweed: 100
[9]; visual rating, 13 to 15 days
  Sedge, Umbrella plant response rating: 80
[10]; [17]
  Plant response rating, Wheat: 20
[10]; [25]
  Wheat plant response rating: 20
[11]; visual rating, 13 to 15 days
  Ducksalad plant response rating: 80
[12]; [23]
  Plant response rating, Morningglory: 0
[12]; [24]
  Morningglory plant response rating: 0
[12]; [25]
  Morningglory plant response rating: 0
[12]; [26]
  Plant response rating, Morningglory: 0
[13]; visual rating, 13 to 15 days
  Barnyardgrass plant response rating: 90
[14]; [23]
  Plant response rating, Velvetleaf: 70
[14]; [24]
  Velvetleaf plant response rating: 100
[14]; [25]
  Velvetleaf plant response rating: 60
[14]; [26]
  Plant response rating, Velvetleaf: 50
[15]; [17]
  Plant response rating, Oat, Wild: 10
[15]; [25]
  Oat, Wild plant response rating: 0

## CCNC(=O)c1cccc(NC(=O)c2cc(C(C)(C)C)nn2CCF)c1 [Compound 35]
[1]; visual rating, 13 to 15 days
  Rice plant response rating: 60
[2]; [27]
  Foxtail, Giant plant response rating: 20
[2]; [23]
  Plant response rating, Foxtail, Giant: 20
[2]; [24]
  Foxtail, Giant plant response rating: 100
[2]; [26]
  Plant response rating, Foxtail, Giant: 80
[3]; [27]
  Lambsquarters plant response rating: 80
[3]; [23]
  Plant response rating, Lambsquarters: 90
[3]; [24]
  Lambsquarters plant response rating: 100
[3]; [26]
  Plant response rating, Lambsquarters: 90
[4]; [27]
  Cocklebur plant response rating: 50
[4]; [23]
  Plant response rating, Cocklebur: 100
[4]; [24]
  Cocklebur plant response rating: 30
[5]; [24]
  Corn plant response rating: 40
[6]; [23]
  Plant response rating, Surinam Grass: 40
[6]; [24]
  Surinam Grass plant response rating: 80
[6]; [26]
  Plant response rating, Surinam Grass: 40
[7]; [27]
  Blackgrass plant response rating: 20
[7]; [17]
  Plant response rating, Blackgrass: 30
[8]; [23]
  Plant response rating, Pigweed: 100
[8]; [24]
  Pigweed plant response rating: 100
[8]; [26]
  Plant response rating, Pigweed: 100
[9]; visual rating, 13 to 15 days
  Sedge, Umbrella plant response rating: 90
[10]; [17]
  Plant response rating, Wheat: 20
[11]; visual rating, 13 to 15 days
  Ducksalad plant response rating: 80
[12]; [24]
  Morningglory plant response rating: 10
[12]; [26]
  Plant response rating, Morningglory: 10
[13]; visual rating, 13 to 15 days
  Barnyardgrass plant response rating: 90
[14]; [23]
  Plant response rating, Velvetleaf: 50
[14]; [24]
  Velvetleaf plant response rating: 60
[14]; [26]
  Plant response rating, Velvetleaf: 50
[15]; [27]
  Oat, Wild plant response rating: 0
[15]; [17]
  Plant response rating, Oat, Wild: 10
